Reference: PubChem BioAssay (NCI)
Several values for one entry are separate records, joined by “and”; a condition that tells them apart may be missing. Equal entries are not always repeated.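 Compound exposure: 48 hours, 5 concentrations, 96-well plates. Abbreviation: GI50, concentration required for 50% inhibition of growth. TGI denotes the concentration required for complete inhibition of growth.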

System: MDA-MB-468 breast
Assay: NCI anticancer screen, dose series, 48 h

CC[Si](CC)(CC)OC1[C@@H](O[Si](CC)(CC)CC)[C@@H](CNC(=O)NC)O[C@H]1n1cnc2c(NC(=O)Nc3ccccc3)ncnc21 (some centres not stated)
GI50: 4240 nM
TGI: 57.4 µM

Cc1ccc(NC2=CC(=O)C(=O)c3ccccc32)cc1
GI50: 1970 nM
TGI: 5.74 µM

CCOC(=O)c1cc(C(=O)c2cc(OC)c(OC)c(OC)c2)n2ccc(-c3cc[n+](CC(=O)c4cc(OC)c(OC)c(OC)c4)cc3)cc12
GI50: 1940 nM
TGI: 3.81 µM

CCC(C(=O)[C@@H](C)[C@@H](O)[C@H](C)[C@@H]1O[C@@H]([C@@H](CC)C(=O)ONC(=O)c2ccccc2)CC[C@@H]1C)[C@H]1O[C@]2(C=CC(=O)[C@]3(CC[C@@](C)([C@H]4CC[C@](O)(CC)[C@H](C)O4)O3)O2)[C@H](C)C[C@@H]1C (some centres not stated)
GI50: 99.2 nM
TGI: 0.979 µM

CC1(C)CC[C@]2(CO)CC[C@]3(C)C(=CC[C@@H]4[C@@]5(C)CCNCC(C)(C)[C@@H]5CC[C@]43C)[C@@H]2C1
GI50: 1800 nM
TGI: 3.79 µM

CC1(C)CN(CCNc2nccc(-c3c(-c4cccc(O)c4)nc4sccn34)n2)S(=O)(=O)N1
GI50: 7030 nM
TGI: > 33.2 µM

Nc1nc(N)c(-c2ccc(Cl)c(Cl)c2)c(CP(Cl)(Cl)(Cl)Br)n1
GI50: 7450 nM
TGI: 36.1 µM

CN1CCN(c2ccc(Nc3nc(NCCCNS(=O)(=O)c4ccc(F)cc4)c4sccc4n3)cc2)CC1
GI50: 10200 nM
TGI: 22.6 µM

O=c1[nH]c2ccccc2n1C1CCN(CCOc2ccccc2)CC1
GI50: 6250 nM
TGI: 57.8 µM

C=C1C(=O)O[C@H]2[C@H]1CC/C(COC(=O)/C=C\C(=O)NCc1ccc(Cn3c(=O)sn(-c4ccc(Cl)cc4)c3=O)cc1)=C\CC[C@@]1(C)O[C@@H]21
GI50: 568 nM
TGI: 1.37 µM

CCCCC[C@H]1C/C=C2/C(=O)C(Cl)=C[C@@H]2C/C=C\CCCC(=O)O1
GI50: 357 nM
TGI: 1.04 µM

C=C1C(=O)O[C@H]2[C@H]1CC/C(COC(=O)N[C@H](Cc1c[nH]c3ccccc13)C(=O)OC)=C\CC[C@@]1(C)O[C@@H]21
GI50: 1020 nM
TGI: 3.92 µM

NC(Cc1c[nH]c2cccc(F)c12)C(=O)O (configuration not stated)
GI50: 50800 nM and 494000 nM
TGI: 2050 µM

NCCCNc1nc2ccccc2c2c(=O)c3cc(F)cc(Cl)c3sc12
GI50: 1690 nM
TGI: 3.71 µM

COc1cc(/C=C/c2ccnc3ccccc23)cc(OC)c1OC
GI50: 1190 nM
TGI: 5.67 µM

CN(C)C/C=C/C(=O)Nc1cc2c(Nc3cccc(Cl)c3F)ncnc2cc1OCCOC(F)F
GI50: < 10 nM

Nc1no[n+]([O-])c1-c1nnc2c(n1)-c1ccccc1C2=O
GI50: 2190 nM
TGI: 5.64 µM

CCOC(=O)c1cc2c(n1Cc1cc(OC)cc(OC)c1)-c1oncc1CC2
GI50: 36.4 nM
TGI: 0.268 µM

COc1cccc(-c2nn(-c3ccccc3)cc2-c2ccnc(NCCCNS(=O)(=O)c3ccc(C(F)(F)F)cc3)c2)c1
GI50: 3110 nM
TGI: > 100 µM

Cc1nn(-c2ccccc2)c2nc(C)n(-c3ccc(Br)cc3)c(=O)c12
GI50: 476 nM
TGI: 53 µM

O=C(c1ccc(Nc2nccc(NCCCCNc3ccnc4cc(Cl)ccc34)n2)cc1)N1CCCCC1
GI50: 1470 nM
TGI: 3.47 µM

O=C(Nc1ccc(Cl)cc1)N1CCN(c2ccc3nncn3n2)CC1
GI50: 26900 nM
TGI: 99.3 µM

CCOC(=O)c1cc2c(n1Cc1ccccc1OC)-c1oncc1CCC2
GI50: 2950 nM
TGI: > 100 µM

O=C(CC1Sc2ccccc2NC1=O)NNc1ccc(F)cc1 (configuration not stated)
GI50: > 100000 nM
TGI: > 100 µM

CCN(CC)CCCC(C)Nc1ccnc(/C=C/c2ccc(Cl)cc2)c1 (configuration not stated)
GI50: 1450 nM
TGI: 2.86 µM

COc1ccc(NC(=O)c2cccc(C3CCc4c(cc(OC)c(OC)c4OC)O3)c2)cc1 (configuration not stated)
GI50: 2600 nM
TGI: > 100 µM

COc1cc(NCCC2CCCCN2)c2ncccc2c1OC (configuration not stated)
GI50: 2070 nM
TGI: 4.18 µM

CC(=O)/C=C/c1ccc(N(CCO)Cc2ccc(C(C)(C)C)cc2)cc1
GI50: 31100 nM
TGI: 127 µM

CC(C)(C)OC(=O)N1Cc2cc3ccccc3nc2C1CO (configuration not stated)
GI50: > 100000 nM
TGI: > 100 µM

CC[C@H](CO)Nc1ccc2ncc(C#Cc3cncc(C(=O)Nc4ccc(CN5CCN(C)CC5)c(C(F)(F)F)c4)c3)n2n1
GI50: 126 nM
TGI: 0.376 µM

CN(c1ccc(F)cc1)S(=O)(=O)c1ccc(-c2cnc(C3CC3)o2)cc1
GI50: 54.4 nM
TGI: 8.98 µM

CCN(CC)CCCNc1cc(OC)c(OC)c2cccnc12
GI50: 3850 nM
TGI: 14.6 µM

C=CCN1C(=O)[C@]2(SC1=S)[C@H](c1cccc(Cl)c1)CN(C)[C@]21C(=O)NC2C=CC(Cl)=C[C@H]21 (some centres not stated)
GI50: 3240 nM
TGI: 14.3 µM

CCC(=C(c1ccc(OCCN2CCCC2)cc1)c1ccc(OCCN2CCCC2)cc1)c1ccc(Cl)cc1
GI50: 533 nM
TGI: 1.07 µM

OCC1OC(n2cnc3c(NCc4ccco4)ncnc32)C(O)C1O (configuration not stated)
GI50: 1360 nM
TGI: 3.16 µM

Cn1cc(-c2nc(-c3cn(C)c4ncccc34)cs2)c2ccccc21
GI50: 169 nM
TGI: 0.719 µM

COc1ccc2nc3ccccc3c(NCc3ccccc3)c2c1
GI50: 1770 nM
TGI: 4.05 µM

O=C(CCl)Nc1ccc(Cc2ccc(NC(=O)CCl)cc2)cc1
GI50: 2030 nM
TGI: 5.57 µM

C[C@@H](Oc1cc(-c2cnn(C3CCNCC3)c2)cnc1N)c1c(Cl)cc(F)cc1Cl
GI50: 1310 nM
TGI: 2.92 µM
